Test [1] relates to HepG2 XBP1(u)-Luc cells. Nature of the test: HepG2 XBP1 reporter assay. The class given is cell-based. To be noted: 6 h. A digest of the protocol: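 Reporter cells are HepG2 stably carrying unspliced XBP1 fused to firefly luciferase, which becomes in-frame after IRE1alpha-mediated splicing. SteadyGlo luminescence was normalized to DMSO-treated cells for IC50 calculation.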
The test system of test [2] is Colo-205 cells. Nature of the test: Calcium flux assay (FLIPR Calcium 5). To be noted: FLIPR Calcium 5, measured over 36 minutes. In kind it is cell-based. How it is done: Compounds described herein induced ER stress by causing intracellular calcium flux. Calcium flux was measured in Colo-205 cells using the FLTPR® Calcium 5 Assay Kit according to manufacter's protocol (Molecular Devices, Cat. #R8186) on a FLIPR3 system (Molecular Devices). Calcium flux is measured over 36 minutes. The Colo-205 calcium flux assay data are summarized in Table 47: A<0.6 μM; 0.6 μM≤B<2.0 μM; 2.0 μM≤C<10.0 μM; D≥10.0 μM.
In general terms: A change in cytosolic calcium serves as a functional read-out for many receptors and channels.

The subject of test [3] is Colo205-TCF/LEF-Luciferase (Luc) tumor. Nature of the test: In vivo inhibition of TCF/LEF reporter activity in Colo-205 tumors. To be noted: TCF/LEF luciferase reporter in Colo-205 tumors, nu/nu mice, oral gavage. Also on record: concentration or dose not given beside the values. A digest of the protocol: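 Female nu/nu mice carried subcutaneous Colo205-TCF/LEF-luciferase tumours (200–500 mm^3), n=4 per group. Compound was given by oral gavage in 1:3:5:1 EtOH:DMSO:PEG-400:H2O at 10 ml/kg, with vehicle as control. Luciferase activity in tumour lysates (Steady-Glo) was normalised to BCA protein.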
In general terms: A reporter such as luciferase makes a cellular process visible.

As for `Cc1nc(N[C@H]2CC[C@H](Oc3ccc(C(F)(F)F)nc3)C2)nc2c1NC(=O)[C@H](C)N2C` (single isomer, unassigned) [Compound 377], the 50% inhibitory concentration (IC50) in test [1] fell in the range of 600 to 2000 nM. Moreover, the EC50 in test [2] was below 600 nM. Moreover, the “Percent Remaining Activity at 8 hrs after Dosing” value (“Percent Remaining Activity” below) in test [3] came to 33%.

For `Cc1nc(NCc2cnn(Cc3ccc(C(F)(F)F)nc3[C@@H](C)O)c2)nc2c1NC(=O)[C@H](C)N2C` (single isomer, unassigned) [Compound 420], the IC50 in test [1] (Homo sapiens) lay in the range of 2000 to 10000 nM. Besides, the EC50 in test [2] (Homo sapiens, COLO 205, 0.6 h) lay in the range of 2000 to 10000 nM. Besides, the “Percent Remaining Activity” value in test [3] turned out to be 28%.

In test [1] (Homo sapiens), `Cc1nc(NCc2cnn(Cc3cccc(C(C)C)c3)c2)nc2c1NC(=O)[C@H](C)N2C` [Compound 80, (7S)-2-(((1-(3-isopropylbenzyl)-1H-pyrazol-4-yl)methyl)amino)-4,7,8-trimethyl-7,8-dihydropteridin-6(5H)-one] came in with an IC50 below 600 nM. In test [2] (Homo sapiens, COLO 205, 0.6 h), the EC50 fell in the range of 600 to 2000 nM. In test [3], the “Percent Remaining Activity” value is 34%.

In the case of `Cc1nc(NCc2cnn(Cc3cc(F)c(F)c(F)c3)c2)nc2c1NC(=O)[C@H](C)N2C` [Compound 122, (7S)-4,7,8-trimethyl-2-(((1-(3,4,5-trifluorobenzyl)-1H-pyrazol-4-yl)methyl)amino)-7,8-dihydropteridin-6(5H)-one], the IC50 in test [1] (Homo sapiens) was below 600 nM. Also, the EC50 in test [2] (Homo sapiens, COLO 205, 0.6 h) was below 600 nM. Besides, the “Percent Remaining Activity” value in test [3] was 16%.

Consider `Cc1nc(NCc2cnn(Cc3ccc(C(F)(F)F)nc3)c2)nc2c1NC(=O)[C@H](C)N2C` [Compound 136, (7S)-4,7,8-trimethyl-2-(((1-((6-(trifluoromethyl)pyridin-3-yl)methyl)-111-pyrazol-4-yl)methyl)amino)-7,8-dihydropteridin-6(5H)-one], for which the IC50 in test [1] was 600 to 2000 nM. For the same molecule, the EC50 in test [2] lay in the range of 600 to 2000 nM. The “Percent Remaining Activity” value in test [3] turned out to be 24%.

Take `Cc1nc(NCc2cnn(Cc3ccc(C(F)(F)F)cc3)c2)nc2c1NC(=O)[C@H](C)N2C` [Compound 149, (7S)-4,7,8-trimethyl-2-(((1-(4-(trifluoromethyl)benzyl)-1H-pyrazol-4-yl)methyl)amino)-7,8-dihydropteridin-6(5H)-one]: the IC50 in test [1] (Homo sapiens) was below 600 nM. The EC50 in test [2] (Homo sapiens, COLO 205, 0.6 h) was below 600 nM. The “Percent Remaining Activity” value in test [3] is 17%.

`Cc1nc(NCc2cnn([C@@H]3C[C@@H]3c3ccc(F)cc3)c2)nc2c1NC(=O)[C@H](C)N2C` [Compound 154, (7S)-2-(((1-((1R,2R)-2-(4-fluorophenyl)cyclopropyl)-1H-pyrazol-4-yl)methyl)amino)-4,7,8-trimethyl-7,8-dihydropteridin-6(5H)-one] displayed an IC50 in test [1] (Homo sapiens) below 600 nM. Further, in test [2] (Homo sapiens, COLO 205, 0.6 h), the EC50 is below 600 nM. The “Percent Remaining Activity” value in test [3] amounted to 24%.

Turning to `Cc1nc(NCc2cnn(Cc3cc(C(F)(F)F)nn3C)c2)nc2c1NC(=O)[C@H](C)N2C` [Compound 160, (7S)-4,7,8-trimethyl-2-(((1-((1-methyl-3-(trifluoromethyl)-1H-pyrazol-5-yl)methyl)-1H-pyrazol-4-yl)methyl)amino)-7,8-dihydropteridin-6(5H)-one], in test [1] (Homo sapiens), the IC50 was below 600 nM. For the same molecule, in test [2] (Homo sapiens, COLO 205, 0.6 h), the EC50 lay in the range of 600 to 2000 nM. Further, the “Percent Remaining Activity” value in test [3] stood at 18%.

As for `Cc1nc(NCc2cnn([C@@H](C)c3ccc(C(F)(F)F)nc3)c2)nc2c1NC(=O)[C@H](C)N2C` [Compound 174, (7S)-4,7,8-Trimethyl-2-(((1-((S)-1-(6-(trifluoromethyl)pyridin-3-yl)ethyl)-1H-pyrazol-4-yl)methyl)amino)-7,8-dihydropteridin-6(5H)-one], the IC50 in test [1] (Homo sapiens) fell in the range of 600 to 2000 nM. In test [2] (Homo sapiens, COLO 205, 0.6 h), the EC50 was in the range of 600 to 2000 nM. The “Percent Remaining Activity” value in test [3] came to 22%.

`CC(=O)N(Cc1cnn(Cc2ccc(C(F)(F)F)nc2)c1)c1nc(C)c2c(n1)N(C)[C@@H](C)C(=O)N2` [Compound 405, (7S)-N-((1-((6-(trifluoromethyl)pyridin-3-yl)methyl)-1H-pyrazol-4-yl)methyl)-N-(4,7,8-trimethyl-6-oxo-5,6,7,8-tetrahydropteridin-2-yl)acetamide] gave an IC50 in test [1] (Homo sapiens) of at least 10000 nM. In test [2] (Homo sapiens, COLO 205, 0.6 h), the EC50 is at least 10000 nM.

In turn, `Cc1nc(NCc2cn(Cc3ccc(C(F)(F)F)nc3)nc2Br)nc2c1NC(=O)[C@H](C)N2C` [Compound 412, (S)-2-(((3-bromo-1-((6-(trifluoromethyl)pyridin-3-yl)methyl)-1H-pyrazol-4-yl)methyl)amino)-4,7,8-trimethyl-7,8-dihydropteridin-6(5H)-one] displayed an IC50 in test [1] (Homo sapiens) below 600 nM. The EC50 in test [2] (Homo sapiens, COLO 205, 0.6 h) fell in the range of 600 to 2000 nM.

The molecule `Cc1nc(NCc2cnn(Cc3cncc(F)c3)c2)nc2c1NC(=O)[C@H](C(C)C)N2C` [Compound 415, (7S)-2-(((1-((5-fluoropyridin-3-yl)methyl)-1H-pyrazol-4-yl)methyl)amino)-7-isopropyl-4,8-dimethyl-7,8-dihydropteridin-6(5H)-one] registered an IC50 in test [1] (Homo sapiens) of 600 to 2000 nM. Further, in test [2] (Homo sapiens, COLO 205, 0.6 h), the EC50 lay in the range of 600 to 2000 nM.

In test [1] (Homo sapiens), `Cc1nc(NCc2cnn(Cc3ccc(C(F)(F)F)nc3Cl)c2)nc2c1NC(=O)[C@H](C)N2C` [Compound 418, (7S)-2-(((1-((2-chloro-6-(trifluoromethyl)pyridin-3-yl)methyl)-1H-pyrazol-4-yl)methyl)amino)-4,7,8-trimethyl-7,8-dihydropteridin-6(5H)-one] showed an IC50 below 600 nM. Further, the EC50 in test [2] (Homo sapiens, COLO 205, 0.6 h) was below 600 nM.

In test [1] (Homo sapiens), `Cc1nc(NCc2cnn(Cc3ccc(C(F)(F)F)nc3C(C)O)c2)nc2c1NC(=O)[C@H](C)N2C` (stereo partly drawn) [Compound 419, (7S)-2-(((1-((2-((S)-1-hydroxyethyl)-6-(trifluoromethyl)pyridin-3-yl)methyl)-1H-pyrazol-4-yl)methyl)amino)-4,7,8-trimethyl-7,8-dihydropteridin-6(5H)-one] yielded an IC50 of 2000 to 10000 nM. Moreover, the EC50 in test [2] (Homo sapiens, COLO 205, 0.6 h) was in the range of 2000 to 10000 nM.

For `Cc1nc(NCc2cnn(Cc3cnc(Cl)c(F)c3)c2)nc2c1NC(=O)[C@H](C(C)C)N2C` [Compound 424, (7S)-2-(((1-((6-chloro-5-fluoropyridin-3-yl)methyl)-1H-pyrazol-4-yl)methyl)amino)-7-isopropyl-4,8-dimethyl-7,8-dihydropteridin-6(5H)-one], in test [1] (Homo sapiens), the IC50 is below 600 nM. In addition, the EC50 in test [2] (Homo sapiens, COLO 205, 0.6 h) was 600 to 2000 nM.

Molecule `CC[C@H]1C(=O)Nc2cnc(NCc3cnn(Cc4ccc(C(F)(F)F)nc4)c3)nc2N1C` [Compound 427, (7S)-7-ethyl-8-methyl-2-(((1-((6-(trifluoromethyl)pyridin-3-yl)methyl)-1H-pyrazol-4-yl)methyl)amino)-7,8-dihydropteridin-6(5H)-one] registered an IC50 in test [1] (Homo sapiens) of 600 to 2000 nM. For the same molecule, the EC50 in test [2] (Homo sapiens, COLO 205, 0.6 h) is 600 to 2000 nM.

In the case of `Cc1nc(NCc2cn(Cc3ccc(C(F)(F)F)nc3)cn2)nc2c1NC(=O)[C@H](C)N2C` [Compound 428, (S)-4,7,8-trimethyl-2-(((1-((6-(trifluoromethyl)pyridin-3-yl)methyl)-1H-imidazol-4-yl)methyl)amino)-7,8-dihydropteridin-6(5H)-one], the IC50 in test [1] (Homo sapiens) was at least 10000 nM. In addition, in test [2] (Homo sapiens, COLO 205, 0.6 h), the EC50 was at least 10000 nM.

For “(7S)-2-(((1-((6-fluoro-2-isopropylpyridin-3-yl)methyl)-1H-pyrazol-4-yl)methyl)(methyl)amino)-7-isopropyl-4,8-dimethyl-7,8-dihydropteridin-6(5H)-one [Compound 430]”, the IC50 in test [1] was below 600 nM. The EC50 in test [2] lay within 600 to 2000 nM.

Usually IC50 stands for the concentration that gives 50% inhibition. Broadly, the EC50 is the concentration needed to bring the measured effect to its halfway point.
